Assays:
Fadu cells = test: Fadu Cell Growth Inhibition Test (MTT Assay); format: cell-based; conditions: Homo sapiens, 72 h incubation
Description: Fadu Cell Growth Inhibition Test (MTT Assay)
Cell strains: Fudu (human head and neck cancer cell strains);
Culture medium: 90% EMEM+10% FBS;
(§1) 1. A plate (10 cm) of cells in logarithmic growth phase normally cultured was collected;
(§2) 2. The culture solution was sucked out. The plate was washed with 5 ml of PBS 1-2 times;
(§3) 3. PBS was sucked out. 1.5 ml of 0.25% pancreatin was added to infiltrate the cells for 1 min;
(§4) 4. The pancreatin was sucked out. The culture plate was placed in an incubator. Digestion was carried out for about 5 min at 37° C.;
(§5) 5. 4.5 ml of complete culture solution was added to the culture plate to stop the digestion. The cells were carefully scoured with micropipette (1 ml) to give a uniform cell suspension. The suspension was implanted into a 96-well cell culture plate by 6000 cells/100 μl per well. The culture plate was incubated overnight under 5% CO2 at 37° C. In day 2, 100 μl of culture solution comprising a compound was added in each well, and further incubated for 72 h under 5% CO2 at 37° C.
(§6) 6. The culture solution was sucked out;
(§7) 7. 100 μl of serum-free culture solution containing 0.5 mg/ml MTT was added in each well, and incubated for 3 h;
(§8) 8. The culture solution was carefully sucked out;
(§9) 9. 100 μl of DMSO was added in each welland vibrated to dissolve;
(§10) 10. OD values were determined at 490 nM.
(§11) 1. Calculation of Relative Inhibition Ratio The inhibition ratio of a compound on cell growth=(PC−n)/(PC−NC)×100%
(§12) IC50: Concentration of a compound where inhibition ratio was 50%. IC50 values were fitted with Origin7.5.

AsPC-1 cells = test: AsPC-1 Cell Growth Inhibition Test (MTT Assay); format: cell-based; conditions: Homo sapiens, ASPC1, 72 h incubation
Description: AsPC-1 Cell Growth Inhibition Test (MTT Assay)
Cell strains: AsPC-1 (human pancreatic cancer cell strains);
as §1, §2, §3
4. The pancreatin was sucked out. The culture plate was placed in an incubator. Digestion was carried out for about 7.5 min at 37° C.;
as §5, with “8000” for “6000”
as §6, §7, §8, §9, §10, §11, §12

CCRF-CEM/T cells = test: CCRF-CEM/T Cell Growth Inhibition Test (MTT Assay); format: cell-based; conditions: Homo sapiens, CCRF-CEM/T cells (resistant to paclitaxel), 72 h incubation
Description: CCRF-CEM/T Cell Growth Inhibition Test (MTT Assay)
Cell strains: CCRF-CEM/T (human acute lymphocytic cell leukemia cells);
triple lysate solution: 10% SDS, 5% isobutanol, 0.012M HCl.
1. Cells were cultured to exponential phase. The cells were suspension cells;
2. The cells were collected by centrifuge. The resulting cells were resuspended in a complete culture medium to a desired concentration. The cells suspension was implanted into a 96-well cell culture plate by 20000 cells per well. A compound was added in the wellsuch that the final volume of the system was 120 μl. The system was further incubated for 72 h under 5% CO2 at 37° C.
7. 30 μl of serum-free culture solution containing 2.5 mg/ml MTT was added in each well, and incubated for 3 h;
8. 150 μl of triple lysate solution was added in each well and placed to dissolve at the room temperature;
9. OD values were determined at 570 nM.
as §11, §12

SK-OV-3 cells = test: SK-OV-3 Cell Growth Inhibition Test (MTT Assay); format: cell-based; conditions: Homo sapiens, 72 h incubation
Description: SK-OV-3 Cell Growth Inhibition Test (MTT Assay)
Cell strains: SK-OV-3 (human ovarian cancer cell strains);
Culture medium: 90% McCoy's 5A+10% FBS;
as §1, §2, §3, §4
as §5, with “stop the digestion.T the cells were” for “stop the digestion. The cells were”, “cell culture disc by 4000” for “cell culture plate by 6000”, “disc by 4000 cells/100 μl” for “plate by 6000 cells/100 μl”
as §6, §7, §8
9. 100 μl of DMSO was added in each well and vibrated to dissolve;
as §10, §11, §12

Her2 kinase = biological target: T1, Her2 kinase (Homo sapiens, UniProt P04626); test: Inhibition Activity Assay on Her2 Enzyme (ELISA, PGT substrate); format: biochemical; conditions: 8 min at 4° C., read-out: Inhibition Activity (EC50) on Her-2
T1 construct: purchased Cell Signaling Tech #7382
T1 sequence (P04626 676-1255 limits assumed): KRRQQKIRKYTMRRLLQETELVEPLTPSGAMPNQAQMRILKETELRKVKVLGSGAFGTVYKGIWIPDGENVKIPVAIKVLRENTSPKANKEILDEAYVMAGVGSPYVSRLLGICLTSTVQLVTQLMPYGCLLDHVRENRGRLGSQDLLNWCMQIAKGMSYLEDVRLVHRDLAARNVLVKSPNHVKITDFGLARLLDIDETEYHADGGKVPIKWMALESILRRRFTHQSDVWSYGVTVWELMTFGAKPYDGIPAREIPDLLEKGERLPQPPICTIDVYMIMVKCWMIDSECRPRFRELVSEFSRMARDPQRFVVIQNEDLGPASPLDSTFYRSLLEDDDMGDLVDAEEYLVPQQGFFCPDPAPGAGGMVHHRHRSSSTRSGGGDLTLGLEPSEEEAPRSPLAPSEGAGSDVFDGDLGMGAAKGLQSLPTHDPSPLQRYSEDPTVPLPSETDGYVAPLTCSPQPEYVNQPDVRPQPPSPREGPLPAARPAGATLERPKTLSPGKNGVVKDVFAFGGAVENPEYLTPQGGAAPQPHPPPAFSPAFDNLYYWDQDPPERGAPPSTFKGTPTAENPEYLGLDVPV
Description: Inhibition Activity Assay on Her2 Enzyme
1. Her2 kinase, Cell Signaling Tech, #7382, Lot. 2, reserved at −80° C.;
2. PBST: PBS+0.05% (v/v) Tween 20;
3. Confining liquid: 3% of BSA in PBS;
4. HEPEs buffer (2×): 50 mM HEPEs, 20 mM MgCl2, 0.1 mM MnCl2, 0.2 mM Na3VO4, adjusted to pH of 7.4 with NaOH;
5. PGT, Sigma, Cat#P0275): 2 mg/ml of stock solution was prepared by dissolving PBS, reserved at −20° C.
6. ATP: […] of stock solution was prepared by dissolving ddH2O, reserved at −20° C.;
7. Mice anti-phosphorylation tyrosine-HRP: Invitrogen-037720, 0.5 mg/ml, reserved at 4° C.;
8. TMB: Cell Signaling Tech, Cat #7004L;
9. DTT: 2.5 M of stock solution was prepared with ddH2O, reserved at −20° C. Before use, 2×HEPEs buffer was added in the solution to the final concentration of 1.25 mM.
1. 2 mg/ml of PGT was diluted with PBS to 0.2 mg/ml. 60 μl of the resulting solution was added in each well. The elisa plate was placed in a refrigerator at 4° C. and coated overnight;
2. The coating solution was discarded to stop the coating. The plate was washed four times with PBS, and then beaten to dryness;
3. The elisa plate was placed in a refrigerator at 4° C., drained out and stood for 3h.
4. […] of aqueous solution of each compound was diluted with ddH2O to a desirable concentration. Then, the solution was added in the corresponding elisa well by 25 μl/well;
5. 2 nM of ATP solution was diluted with ddH2O to 25 folds and then sufficiently mixed. The resulting solution was separately added in each elisa well by 25 μl per well (25 μl ddH2O was added in the negative control);
6. Her2 kinase was diluted with 2×TKB to 800 folds. The resulting solution was added in the elisa well by 50 μl per well. Then, the enzyme reaction began. Moreover, the elisa plate was immediately placed in a micro-oscillator. The reaction is carried out for 8 min at the temperature of 4° C.;
7. 2% of SDS was added in the elisa well to stop the reaction by adding 100 μl of SDS in each well. The solution was sufficiently mixed on the micro-oscillator to sufficiently mix for about 5 min;
8. The reaction solution was sucked out. The plate was washed four times with PBST. After the plate was beaten to dryness, 0.25 μg/ml of mice anti-phosphorylation tyrosine-HRP which was diluted with confining liquid was added in the plate by 100 μl per well, and then reacted for 30 min at the room temperature.
9. The antibody reaction solution was sucked out. The plate was washed six times with PBST. After the plate was beaten to dryness, TMB peroxidase substrate was added in the plate with 100 μl/well, and then reacted in the dark for 15 min at the room temperature;
10. 100 μl of 2N H2SO4 was added in the solution to stop the chromogenic reaction. After the bubbles were cleansed, the solution was measured in elisa at 450 nm.
OD values were converted in relative inhibition ratios according to following formula: Relative inhibition ratio=[1−(experiment values−NC mean values)/(PC mean values−NC mean values)]×100%

Row | Compound | IC50 (Fadu cells) [nM] | IC50 (AsPC-1 cells) [nM] | IC50 (CCRF-CEM/T cells) [nM] | IC50 (SK-OV-3 cells) [nM] | EC50 (Her2 kinase) [nM]
1 | CN(C)C/C=C/C(=O)Nc1cc2c(Nc3ccc(OCc4ccccn4)c(Cl)c3)c(C#N)cnc2cc1OC1CCOC1 (centres unmarked) [Example 2, (E)-N-(4-(3-CHLORO-4-(PYRIDIN-2-YL-METHOXY)PHENYLAMINO)-3-CYANO-7-(TETRAHYDROFURAN-3-YL-OXY)QUINOLIN-6-YL)-4-(DIMETHYLAMINO)-BUT-2-ENAMIDE] | 149 | 770 | 1800 | 331 | 
2 | N#Cc1cnc2cc(OC3CCOC3)c(NC(=O)C=C3CCNCC3)cc2c1Nc1ccc(F)c(Cl)c1 (centres unmarked) [Example 42, N-(4-(3-CHLORO-4-FLUOROPHENYLAMINO)-3-CYANO-7-(TETRAHYDROFURAN-3-YL-OXY)QUINOLIN-6-YL)-2-(PIPERIDIN-4-YLIDENE)ACETAMIDE] |  |  |  |  | 291

— patent US9187458B2, “Cyanoquinoline derivatives” (Tianjin Hemay Bio-Tech Co., LTD., priority 2010, dated 2015)
